Measured values published in patent US20070020340A1, “Fish oil products for reducing cholesterol, low density lipoprotein, and hypertension” (priority 2005, published 2007).

What was measured:
[1] = system: men with moderately elevated cholesterol who also suffered from moderate to high hypertension; experiment: 16-week study of fish oil (EPA/DHA) with or without allicin, oleuropein or Policosanol in eight treatment groups; assay type: in vivo, human; conditions: after sixteen weeks of daily treatment
Method: Eighty men with moderately elevated cholesterol who also suffered from moderate to high hypertension, were assigned to one of eight treatment groups, and followed for 16 weeks. The EPA and DHA administered was from fish oil and in free fatty acid form containing 3 grams of EPA and 2 grams of DHA, administered daily. Group one received fish oil alone. Group two received the same amount of fish oil with 5 mg allicin dissolved in the fish oil. Group three received the same amount of fish oil with 100 mg oleuropein dissolved therein. Group four received the same amount of fish oil with 10 mg of Policosanol dissolved therein. Group five received soft gelatin capsules with sunflower oil rather than fish oil. Group six received 5 mg of allicin dissolved in sunflower oil. Group seven received 100 mg oleuropein dissolved in sunflower oil. Group eight received Policosanol dissolved in sunflower oil. After sixteen weeks of treatment, the results were as follows: • 1. Group one registered 5% lowering of serum triglycerides. There was no change in HDL cholesterol and an 8% increase in LDL. Systolic blood pressure dropped by average of 3% and diastolic blood pressure dropped by average of 2%. • 2. Group two registered a 30% lowering of triglycerides, 12% decrease in LDL, and 8% increase in HDL. Both systolic and diastolic blood pressure dropped by an average of 10% • 3. Group three registered a 25% lowering of serum triglycerides, 10% decrease of LDL, and 10% increase in HDL. Systolic pressure dropped by average of 12% and diastolic pressure dropped by average of 10% • 4. Group four registered 20% lowering of serum triglycerides, 12% decrease of LDL, and 8% increase in HDL. Systolic and diastolic pressure dropped by average of 10%. • 5. Group five had no change in any of the parameters tested. • 6. Group six registered 3% lowering of serum triglycerides, 6% lowering of LDL and 2% increase of HDL. Sistolic and diastolic pressure dropped by average of 5% • 7. […] Systolic blood pressure dropped by average of 7% and diastolic pressure dropped by average of 5%. • 8. Group eight registered 10% lowering of serum triglycerids, 8% lowering of LDL, and 5% increase of HDL.

[2] = system: hyperlipidemic rabbits; conditions: cholesterol-rich diet; cited from earlier work
[3] = system: interleukin-1-beta; conditions: cited from earlier work
[4] = compared with oleuropein, tyrosol, hydroxytyrosol; cited from earlier work

Row | SMILES | diastolic blood pressure dropped by average of [1] [%] | lowering of serum triglycerides [1] [%] | systolic blood pressure dropped by average of [1] [%] | concentration of interleukin-1-beta [3] | also measured
1 | C/C=C1/[C@H](O[C@@H]2O[C@H](CO)[C@@H](O)[C@H](O)[C@H]2O)OC=C(C(=O)OC)[C@H]1CC(=O)OCCc1ccc(O)c(O)c1 [Group seven, oleuropein] | 5 | 12 | 7 | – | –
2 | C=CCS[S+]([O-])CC=C (stereo not drawn) [Group six, allicin] | 5 | 3 | 5 | – | decrease in LDL [1]: 6%; increase in HDL [1]: 2%
3 | C=CCS[S+]([O-])CC=C (stereo not drawn) [allicin] | – | – | – | – | effect on the serum lipid profile [2]: beneficial effect
4 | O=C(O)/C=C/c1ccc(O)c(O)c1 [carreic acid] | – | – | – | decreased | –
5 | COc1cc(CCO)ccc1O [homovanillic alcohol] | – | – | – | – | antioxidant potency [4]: significantly more potent antioxidant than the other phenolics
6 | C/C=C1/[C@H](O[C@@H]2O[C@H](CO)[C@@H](O)[C@H](O)[C@H]2O)OC=C(C(=O)OC)[C@H]1CC(=O)OCCc1ccc(O)c(O)c1 [oleuropein glycoside] | – | – | – | decreased | –
